Here are results for 1 compound from patent US20250108213A1, “COMPOSITIONS AND METHODS FOR ENHANCING THE EFFECT OF PLATINUM-BASED SYSTEMIC THERAPY” (NOVOCURE GMBH, priority 2023, published 2025).

Entries after “also recorded” stand apart in the source; their conditions may differ.

For one series, the system named is A2780cis cells. Kind of series: Apoptosis, Annexin V/7-AAD staining, flow cytometer. The following applies: TTFields applied with drug. In kind it is cell-based, human. Here is the method:
(§1) Apoptosis was also examined. Treated cells were double-stained with FITC-conjugated annexin V (AnnV) and 7-aminoactinomycin D (7AAD), and data acquisition was performed with a flow cytometer.
Treated cells were double-stained with FITC-conjugated annexin V (AnnV) and 7-aminoactinomycin D (7AAD), and data acquisition was performed with a flow cytometer.
(§2) Treated cells were stained with FITC-conjugated Annexin V (AnnV) and 7-Aminoactinomycin D (7-AAD) using a commercial kit (BioLegend, San Diego, CA, USA), according to the manufacturer's instruction. Data acquisition and analysis were done on the Cytek Northern Lights flow cytometer
Background: Flow cytometry measures light scatter and fluorescence of single cells or particles in a stream.

Series [1] has as its system orthotopic ID8-fLuc (HRP) ovarian cancer tumors. Kind of series: Overall survival of ovarian cancer bearing mice. The class given is in vivo. Here is the method: (§3) Murine experiments were approved by the KU Leuven ethical committee (P082/2021). NIH guidelines for the Care and Use of Laboratory Animals were followed along with the 2010/62/EU directive and the ARRIVE (Animal Research: Reporting of In Vivo Research: Reporting of In Vivo Experiments) guidelines. Syngeneic ID8-fluc cells were harvested using 0.05% Trypsin-EDTA and inoculated (5×10^6 cells in 100 μL DPBS) intraperitoneally in female C57BL/6 mice (six- to eight-week-old, obtained from Envigo (Horst, The Netherlands)), leading to the development of a stage III-IV ovarian cancer model.
Seven days post inoculation, treatment was initiated. Mice were divided into four groups receiving either, sham-heat and vehicle (n=8), sham-heat and olaparib (n=8), TTFields and vehicle (n=7) or TTFields and olaparib (n=11). TTFields treatment (200 kHz) was administered continuously using the in vivo system (Novocure, Israel) by applying electrode arrays to the shaven abdomen of the mice as previously described. Sham-heat used analogous non-therapeutic arrays. Olaparib (MedKoo Biosciences, USA) was dissolved in a vehicle of 10% DMSO, 50% PEG300 and 40% DPBS and administered at a concentration of 50 mg/kg/day through daily oral gavage. Overall, therapeutic interventions lasted for four weeks, given in four cycles of five consecutive treatment days, followed by two days without treatment.
Mice were followed up and weighed daily once ascites development started as indicated by the appearance of abdominal distention. Mice were sacrificed when their body weight reached ≥32 grams as a surrogate endpoint for survival.

Series [2] shares this test system. Kind of series: Tumor load by bioluminescent imaging in ovarian cancer bearing mice. In kind it is in vivo. Here is the method:
as §3
Seven days post inoculation, treatment was initiated. Mice were divided into four groups receiving either, sham-heat and vehicle (n=8), sham-heat and olaparib (n=8), TTFields and vehicle (n=7) or TTFields and olaparib (n=11). TTFields treatment (200 kHz) was administered continuously using the in vivo system (Novocure, Israel) by applying electrode arrays to the shaven abdomen of the mice as previously described. […]
Tumor load was observed through bioluminescent imaging analysis before (day 5) and after (day 35) treatment administration. […] Ten minutes post injection, photon flux was measured using the IVIS-spectrum preclinical In Vivo Imaging System (Perkin-Elmer, USA). Normalized photon flux was calculated by subtracting the photon flux before treatment from the paired photon flux after treatment per mouse.

A further series has as its system OVCAR-3 cells. As to the method: Cells were seeded on coverslip (22 mm diameter; 20×10^3 cells/coverslip for A2780 and A2780cis; 40×10^3 cells/coverslip for OVCAR-3). After overnight incubation, the coverslips were transferred into in vitro dishes containing 2 ml of media. TTFields at a frequency of 200 kHz (and intensity of 1 V/cm RMS) were applied to the cells for 72 hr using the INOVITRO system (Novocure, Haifa, Israel).
For efficacy outcomes (cell count, overall effect, and apoptosis), various concentrations of carboplatin (MCE MedChemExpress, HY-17393), olaparib (Cayman Chemical, 10621), or niraparib (Cayman Chemical, 20842) were applied, with or without TTFields.
Cell count was examined following treatment using Cytek Northern Lights flow cytometer (Cytek Biosciences, USA).
Treated cells were harvested, re-plated in 6-well plates (500 cells/well for A2780 and A2780cis; 1000 for cells/well OVCAR-3), and grown for 7 (A2780 and A2780cis) or 21 (OVCAR-3) days. Colonies were stained with 0.5% crystal violet, quantified with ImageJ, and expressed as percentages relative to control. Overall effect was calculated by multiplying colony formation with the corresponding cell count.
The surviving fraction predicted for an additive effect between TTFields and drug was calculated per the various drug concentrations by multiplying the actual measured surviving fractions for the individual treatments one by the other (SFcalculated additive=SFTTFields×SFdrug; SF are expressed as probability). Based on the calculated values, a trendline was determined. Additivity, synergy, or antagonism was defined when the calculated additive trendline overlapped, was above, or was below the actual measured line for TTFields+drug, respectively.
For quantifying the magnitude of TTFields-drug interaction, interaction index (Ii) values were calculated by the Bliss independence method using mortality values (Mx=1−SFx). Per the various drug concentrations, mortality predicted for an additive effect between TTFields and drug (Mcalculated additive=MTTFields+Mdrug−MTTFields×Mdrug) was divided by the actual measured mortality for TTFields+drug. Additivity was determined when the 95% confidence interval (CI) overlapped 1, synergy when 95% CI<1, and antagonism when 95% CI>1. Lower Ii values were considered indicative of higher synergy levels.

The subject of a further series is A2780 cells. Kind of series: Apoptosis, Annexin V/7-AAD staining, flow cytometer. The class given is cell-based, human. To be noted: TTFields applied with drug. As to the method: Apoptosis: Treated cells were double-stained with FITC-conjugated annexin V (AnnV) and 7-aminoactinomycin D (7AAD), and data acquisition was performed with a flow cytometer.
as §1, §2

As to `O=C(c1cc(Cc2n[nH]c(=O)c3ccccc23)ccc1F)N1CCN(C(=O)C2CC2)CC1` [olaparib], the “effect of TTFields on the apoptotic effect / apoptotic cell fraction” value in the series on A2780cis cells is reported as “elevation”; in the series on A2780 cells, “enhanced; also recorded: elevation”. The “median overall survival, TTFields plus olaparib” value in series [1] (TTFields (200 kHz) plus olaparib 50 mg/kg/day, control 62 days) worked out at 70 days. Besides, in series [1] (monotherapy, control 62 days), the “median overall survival, monotherapy” value amounted to 64.5 days. Further, the “survival compared to control mice, monotherapy” value in series [1] (olaparib only, p=0.0401) is on record as “survival benefit”. For the same compound, the “survival, TTFields plus olaparib compared to control and monotherapies” value in series [1] (p=0.0003 vs control, p=0.0003 vs olaparib, p=0.0130 vs TTFields) is “significantly prolonged”. In series [2] (TTFields (200 kHz) plus olaparib 50 mg/kg/day oral gavage, after 4 weeks, p=0.0183 vs controls, p=0.0066 vs olaparib only), the “tumor volumes lower compared to controls and to olaparib only treated mice” value is listed as “about 80%”. Moreover, the “tumor growth relative to olaparib alone and to control, TTFields and olaparib together” value in series [2] (TTFields plus olaparib 50 mg/kg/day) is recorded as “significant reduction”. Besides, the “type of TTFields-drug interaction (measured vs calculated additive curve)” value with OVCAR-3 cells (HRD cells, TTFields 200 kHz, 1 V/cm RMS, 72 h) was “additively”. For the same compound, the “type of TTFields-drug interaction, overall effect (cell count and clonogenic effect)” value with OVCAR-3 cells (TTFields 200 kHz, 1 V/cm RMS, 72 h) is listed as “additive”. Also, in the series on OVCAR-3 cells (TTFields 200 kHz, 1 V/cm RMS, 72 h, BRCA mutant), the “type of TTFields-drug interaction, cytotoxic effect (cell count)” value was “additively”. Moreover, the “effect of TTFields on the drug-induced overall effect (cell count x colony formation)” value in the series with OVCAR-3 cells (TTFields plus drug vs drug alone) is “significantly augmented”. Moreover, the “effect of TTFields on the drug-induced effect, cell count” value in the series on OVCAR-3 cells (TTFields plus drug vs drug alone, p<0.0001) is “significantly augmented”. Further, the “sensitivity to drug (cell count dose response)” value with OVCAR-3 cells (drug alone, 72 h, compared among A2780, OVCAR-3, A2780cis) is on record as “highest sensitivity”.
